Measured values reported in ChEMBL document CHEMBL1201862, “PubChem BioAssay data set” (2004).
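Cells were grown in 96-well plates and exposed to each compound for 48 hours at five concentrations; endpoints were interpolated linearly between bracketing concentrations, or set to the highest concentration if not reached. GI50 marks 50% less growth.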 Active and inactive are the calls of the source. No stated cut-off is given here; in the data, active = GI50 up to about 1.1 µM and inactive = higher.

Assays:
Test in all cases: growth of human tumour cells (NCI), 48 h
CAKI-1 = system: CAKI-1
DU-145 = system: DU-145
HCT-116 = system: HCT-116
HOP-62 = system: HOP-62
KM12 = system: KM12
MCF7 = system: MCF7
NCI-H226 = system: NCI-H226
NCI-H23 = system: NCI-H23
NCI-H522 = system: NCI-H522
NCI/ADR-RES = system: NCI/ADR-RES
OVCAR-4 = system: OVCAR-4
PC-3 = system: PC-3
RPMI-8226 = system: RPMI-8226
RXF 393 = system: RXF 393
SNB-19 = system: SNB-19
SR = system: SR
SW-620 = system: SW-620
UACC-257 = system: UACC-257
UACC-62 = system: UACC-62
UO-31 = system: UO-31

Row | Structure (SMILES) | GI50 (CAKI-1) | GI50 (DU-145) | GI50 (HCT-116) | GI50 (HOP-62) | GI50 (KM12) | GI50 (MCF7) | GI50 (NCI-H226) | GI50 (NCI-H23) | GI50 (NCI-H522) | GI50 (NCI/ADR-RES) | GI50 (OVCAR-4) | GI50 (PC-3) | GI50 (RPMI-8226) | GI50 (RXF 393) | GI50 (SNB-19) | GI50 (SR) | GI50 (SW-620) | GI50 (UACC-257) | GI50 (UACC-62) | GI50 (UO-31)
1 | O=C(O)[C@H]1NC[C@H]2C(Br)=NO[C@@H]12 | > 100 µM (inactive) | > 100 µM (inactive) | > 100 µM (inactive) | > 100 µM (inactive) | > 100 µM (inactive) | > 100 µM (inactive) | > 100 µM (inactive) | > 100 µM (inactive) | > 100 µM (inactive) | > 100 µM (inactive) | > 100 µM (inactive) | > 100 µM (inactive) | > 100 µM (inactive) | > 100 µM (inactive) | > 100 µM (inactive) | > 100 µM (inactive) | > 100 µM (inactive) | > 100 µM (inactive) | > 100 µM (inactive) | > 100 µM (inactive)
2 | COc1cc(/C=C/C(=O)O)ccc1OS(=O)(=O)O | > 100 µM (inactive) | > 100 µM (inactive) | > 100 µM (inactive) | > 100 µM (inactive) | > 100 µM (inactive) | > 100 µM (inactive) | > 100 µM (inactive) | > 100 µM (inactive) | > 100 µM (inactive) | > 100 µM (inactive) | > 100 µM (inactive) | > 100 µM (inactive) | > 100 µM (inactive) | > 100 µM (inactive) | > 100 µM (inactive) | > 100 µM (inactive) | > 100 µM (inactive) | > 100 µM (inactive) | > 100 µM (inactive) | > 100 µM (inactive)
3 | CC(C)(CC(O)C#N)/[N+]([O-])=[N+](\[O-])C(C)(C)CC(O)C#N (stereo not given) | 10.9 µM (inactive) | 30.5 µM (inactive) | 15.2 µM (inactive) | 19.4 µM (inactive) | 30.7 µM (inactive) | 20.7 µM (inactive) | 25.6 µM (inactive) | 25.4 µM (inactive) | 13.8 µM (inactive) | 38.2 µM (inactive) | 24.1 µM (inactive) | 28.2 µM (inactive) | 19.4 µM (inactive) | 15.9 µM (inactive) | 84.3 µM (inactive) | 15.2 µM (inactive) | 12 µM (inactive) | 20.4 µM (inactive) | 16 µM (inactive) | 26.9 µM (inactive)
4 | COc1ccc(CCNC(=S)NC=C2C(=O)c3ccccc3C2=O)cc1OC | > 100 µM (inactive) | > 100 µM (inactive) | > 100 µM (inactive) | > 100 µM (inactive) | > 100 µM (inactive) | 89.9 µM (inactive) | > 100 µM (inactive) | > 100 µM (inactive) | > 100 µM (inactive) | > 100 µM (inactive) | > 100 µM (inactive) | > 100 µM (inactive) | 17.9 µM (inactive) | > 100 µM (inactive) | > 100 µM (inactive) | 82 µM (inactive) | > 100 µM (inactive) | > 100 µM (inactive) | > 100 µM (inactive) | 27.7 µM (inactive)
5 | c1ccc(CNc2c3c(nc4ccccc24)CCC3)cc1 | 15.3 µM (inactive) | 21.5 µM (inactive) | 9.1 µM (inactive) | 8.97 µM (inactive) | 15.6 µM (inactive) | 13.8 µM (inactive) | 17.1 µM (inactive) | 16.3 µM (inactive) | 15.7 µM (inactive) | 14.2 µM (inactive) | 15 µM (inactive) | 13.2 µM (inactive) | 10 µM (inactive) | 14 µM (inactive) | 23 µM (inactive) | 13.4 µM (inactive) | 11.9 µM (inactive) | 13.6 µM (inactive) | 12.8 µM (inactive) | 11.4 µM (inactive)
6 | CC12CCC(C(=O)n3c1nc1ccccc13)C(C)(C)O2 (stereo not given) | > 100 µM (inactive) | > 100 µM (inactive) | > 100 µM (inactive) | > 100 µM (inactive) | > 100 µM (inactive) | > 100 µM (inactive) | > 100 µM (inactive) | > 100 µM (inactive) | 47.6 µM (inactive) | > 100 µM (inactive) | > 100 µM (inactive) | > 100 µM (inactive) | > 100 µM (inactive) | > 100 µM (inactive) | > 100 µM (inactive) | > 100 µM (inactive) | > 100 µM (inactive) | > 100 µM (inactive) | > 100 µM (inactive) | 75.3 µM (inactive)
7 | COC(=O)C1=C(C)NC(C)=C(C(=O)OC)C1c1ccc(NO)cc1 | 13 µM (inactive) | 19.1 µM (inactive) | 7.59 µM (inactive) | 14.6 µM (inactive) | 17.1 µM (inactive) | 8.11 µM (inactive) | 17.3 µM (inactive) | 21.3 µM (inactive) | 0.891 µM (active) | 18.8 µM (inactive) | 10.6 µM (inactive) | 13.4 µM (inactive) | 1.73 µM (inactive) | 15.8 µM (inactive) | 24.6 µM (inactive) | 2.47 µM (inactive) | 4.09 µM (inactive) | 11 µM (inactive) | 13 µM (inactive) | 11.3 µM (inactive)
8 | O=C1CC2SC(COCc3ccccc3)(CCN2Cc2ccccc2)C1 (stereo not given) | > 100 µM (inactive) | > 100 µM (inactive) | 44.2 µM (inactive) | > 100 µM (inactive) | 52.2 µM (inactive) | 31 µM (inactive) | 87.3 µM (inactive) | 43.9 µM (inactive) | 56.8 µM (inactive) | 65 µM (inactive) | 61.9 µM (inactive) | 35 µM (inactive) | 30.2 µM (inactive) | > 100 µM (inactive) | > 100 µM (inactive) | 35.2 µM (inactive) | > 100 µM (inactive) | 37.1 µM (inactive) | 81.1 µM (inactive) | 34.7 µM (inactive)
9 | O=C(O)C1=CN(c2ccncc2)C(c2ccco2)=CC1c1ccccc1[N+](=O)[O-] (stereo not given) | 16.5 µM (inactive) | 13.5 µM (inactive) | 1.96 µM (inactive) | 13.8 µM (inactive) | 1.75 µM (inactive) | 2.99 µM (inactive) | 4.72 µM (inactive) | 14.5 µM (inactive) | 3.22 µM (inactive) | 22.9 µM (inactive) | 13.9 µM (inactive) | 13.9 µM (inactive) | 2.67 µM (inactive) | 6.31 µM (inactive) | 12.5 µM (inactive) | 1.94 µM (inactive) | 10.2 µM (inactive) | 2.31 µM (inactive) | 15.6 µM (inactive) | 10.4 µM (inactive)
10 | CN(C)c1n/c(=N/Cc2ccco2)ss1 | 30.5 µM (inactive) | > 66.5 µM (inactive) | 8.97 µM (inactive) | 24.9 µM (inactive) | 3.72 µM (inactive) | 16.4 µM (inactive) | 62.2 µM (inactive) | 25.6 µM (inactive) | 0.307 µM (active) | 75.3 µM (inactive) | 30.3 µM (inactive) | 15.5 µM (inactive) | 1.79 µM (inactive) | 7.98 µM (inactive) | 60.5 µM (inactive) | 0.521 µM (active) | 26.2 µM (inactive) | 46.5 µM (inactive) | 5.32 µM (inactive) | 28.8 µM (inactive)
11 | Clc1cc2nc(C3CCCCO3)[nH]c2cc1Cl (stereo not given) | 29.1 µM (inactive) | 48.6 µM (inactive) | 13.7 µM (inactive) | 64.7 µM (inactive) | 10.6 µM (inactive) | 3.48 µM (inactive) | 86.7 µM (inactive) | 18 µM (inactive) | 2.59 µM (inactive) | 12.1 µM (inactive) | 34.4 µM (inactive) | 22.3 µM (inactive) | 12.8 µM (inactive) | 8.17 µM (inactive) | 39.7 µM (inactive) | 4.49 µM (inactive) | 19.6 µM (inactive) | 59.2 µM (inactive) | 24.5 µM (inactive) | 11.1 µM (inactive)
